Results reported in patent US20240115711A1, “Novel Bifunctional Molecules For Targeted Protein Degradation” (Amphista Therapeutics Limited, priority 2020, published 2024).
Read-outs that look alike come from different tables or passages of the source.

Columns and labels:
tumor cell lines [1] = conditions: up to 94 tumor cell lines, from Ottis et al, identical assay conditions, cited from earlier work; for # tumor cell lines Low sensitivity/Resistant: degrader GI50 < inhibitor; for # tumor cell lines Highly sensitive: degrader GI50 >3 fold more potent than inhibitor
MV4;11 cells = experiment: Assay 3 - MV4;11 cell viability using CellTiter-Glo assay; assay type: cell-based; conditions: Homo sapiens, 48 h incubation
Experimental: 1.3 Assay 3—MV4;11 Cell Viability Using CellTiter-Glo Assay
The anti-proliferative effects of representative compounds were measured using the CellTiter-Glo assay (Promega). MV4;11 cells were seeded into sterile, white, clear-bottomed 384-well cell-culture microplates (Greiner Bio-one), at 2× concentration in IMDM media and a volume of 25 μL. Test compounds were serially diluted (11-pt dose-response from 1 μM) in IMDM media to 2× concentration, then added to cells to make a final volume of 50 μL. Final DMSO concentration was 0.05%. After 48 h incubation, 25 μL of CellTiter-Glo reagent was added to each well. Following a 15 minutes incubation the luminescence signal was read on a CLARIOStar Plus. Data was processed and dose-response curves were generated using Prism 8 (Graphpad).
The impact on cell viability of MV4;11 cells was evaluated according to the procedure outlined in assay 3 for compounds A1, A2, A8 and A9.

tumor cell lines [2] = experiment: Cancer cell panel screening, GI50 by Sulforhodamine B method; assay type: cell-based; conditions: up to 94 tumor cell lines, 72 h
Experimental: Cancer cell panel screening was provided as a service from OncoLead GmbH & Co. KG. After a lag phase of 48 h, each cell line was treated with six different concentrations (10^−10, 10^−9, 10^−8, 10^−7, 10^−6, 10^−5 M) of either A2 or I-BET726 for 72 h. Concentrations to give half-maximal growth inhibition (GI50) were determined using the Sulforhodamine B method. Log(GI50) values were plotted as single points (I-BET726, cross; A2, dot) superimposed on the bar graph and plotted along the right y axis. Log ratio of the GI50 determined for I-BET726 versus the GI50 determined for A2 were plotted for each cell line tested (bars, left y axis).
Where no specific GI50 value could be determined, a GI50 of at least 10^−5 M was assumed to calculate the inhibitor vs degrader ratio.
Similar studies have previously been carried out on CRBN PROTAC (dBET6) and VHL PROTAC (MZ1) (see, for example, Ottis et al, ACS Chem. Biol. 2019, 14, 2215-2223 under identical assay conditions).
Low sensitivity/resistant defined as degrader GI50<inhibitor.

HiBit-BRD4 = molecular target: T1, HiBit-BRD4 (Homo sapiens, UniProt O60885); experiment: Assay 1 - Degradation of HiBit-BRD4 in HEK293; assay type: cell-based; conditions: HiBit-BRD4 HEK293, 6 h treatment
T1 construct: HEK293 containing a HiBit insertion for BRD4; endogenous in cells; host or cells: HEK293 with HiBit insertion at BRD4
Experimental: 1.1 Assay 1—Degradation of HiBit-BRD4 in HEK293
HEK293 containing a HiBit insertion for BRD4 were plated in 384-well tissue culture plates at a density of 8×10^4 per well in a volume of 36 μL and incubated overnight at 37° C. and 5% CO2. Wells were treated with test compounds for 6 h prior to addition of the NanoLuc substrate and reading on a […]. Degradation data was plotted and analysed using […] (Graphpad).
The degradation of target protein BRD4 was detected according to the procedure outlined in assay 1 for the following compounds.

[3] = In vivo systemic drug exposure after oral and intravenous dosing; conditions: female, mouse, plasma, C57BL/6 mice
Experimental: Test compound was administered to C57BL/6 mice, (6-8 weeks, 18-20 g, female, N=6, purchased from JH Laboratory Animal Co. with free access to food and water) at the indicated dose level via oral gavage (p.o., 10 mL/kg, 5% DMSO+95%(15% HP-β-CD in Water) vehicle, oral dosing leg) or tail vein (i.v., 5 mL/kg, 5% DMSO+95%(15% HP-β-CD in Water) vehicle, intravenous leg). The animal was restrained manually at designated time points up to 24 h, approximately 110 μL of blood sample was collected via facial vein into K2EDTA tubes. Blood sample was put on ice and centrifuged at 2000 g for 5 min to obtain plasma sample within 15 minutes which was analysed on an LC-MS/MS-19 (Triple Quad 5500) in positive ion ESI mode following sample prep and HPLC elution:
Mobile Phase: • Mobile Phase A: H2O—0.025% FA—1 mM NH4OAC • Mobile Phase B: MeOH—0.025% FA—1 mM NH4OAc
• Column: ACQUITY UPLC BEH C18 2.1*50 mm 1.7 um • Flow rate: 0.60 mL/min • Column temperature: 60° C.

[4] = In vivo drug exposure in the brain after systemic dosing; conditions: C57BL/6 mice, intravenous 5 mg/kg dose
Experimental: Blood collection: The animal was restrained manually at designated time points up to 24 h, approximately 110 μL of blood sample was collected via facial vein into K2EDTA tubes. Blood sample was put on ice and centrifuged at 2000 g for 5 min (4° C.) to obtain plasma sample within 15 minutes. Brain collection: The animal was euthanized under CO2. A mid-line incision was made in the animal's scalp and skin retracted. The skull overlying the brain was removed. The whole brain was collected, rinsed with cold saline, dried on filtrate paper, weighted, snap frozen by placing into dry-ice. The sample was homogenized with 3 volumes (v/w) of PBS prior to analysis. Samples were analysed on an LC-MS/MS-19 (Triple Quad 5500) in positive ion ESI mode following sample prep and HPLC elution: Mobile Phase: • Mobile Phase A: H2O—0.025% FA—1 mM NH4OAC • Mobile Phase B: MeOH—0.025% FA—1 mM NH4OAc • Column: waters BEH C18 (2.1×50 mm, 1.7 μm) • Flow rate: 0.60 mL/min • Column temperature: 60° C.

mutant KRas (G12C) = molecular target: T2, mutant KRas (G12C) (Homo sapiens, UniProt P01116, G12C); experiment: Assay 6 - Degradation of KRas-G12C by immunoblot (MIA-PaCa-2 cells); assay type: cell-based; conditions: after 24 h treatment with 1000 nM
T2 construct: endogenous in cells; host or cells: MIA-PaCa-2
Experimental: 1.6 Assay 6—Degradation of KRas-G12C by Immunoblot.
MIA-PaCa-2 cells were seeded in 6- or 12-well plates overnight prior to 24 h treatment with test compounds at the desired concentration (DMSO final concentration 0.1%). After 24 h incubation, cells were washed with PBS and lysed with RIPA buffer (Sigma) supplemented with 1 mM MgCl2, 1 U/mL Benzonase (Sigma), and 1× cOmplete Mini EDTA-free Protease Inhibitor Cocktail (Roche). Lysates were clarified by centrifugation (15,000×g, 20 min, 4° C.) and the total protein content of the supernatant was quantified using a BCA assay. Samples were prepared using equal amounts of total protein and LDS sample buffer (Invitrogen). […] Blots were visualised using a Bio-Rad ChemiDoc MP Imaging System, and band quantification was performed using Image Studio software (LiCor). […] Degradation data was plotted and analysed using Prism (Graphpad, version 8).
The degradation of target protein mutant KRas (G12C) was detected according to the procedure outlined in […] for the compound A64.

T2 sequence (P01116 1-188 isoform P01116-2 G12C): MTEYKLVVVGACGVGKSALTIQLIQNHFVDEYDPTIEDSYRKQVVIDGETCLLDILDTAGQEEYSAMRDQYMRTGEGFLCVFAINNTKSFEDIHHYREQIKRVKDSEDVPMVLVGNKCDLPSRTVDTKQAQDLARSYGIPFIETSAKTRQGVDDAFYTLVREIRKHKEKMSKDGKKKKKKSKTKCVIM

For `Cc1sc2c(c1C)C(c1ccc(Cl)cc1)=N[C@@H](CC(=O)NCCCCCCCCNC(=O)COc1cccc3c1C(=O)N(C1CCC(=O)NC1=O)C3=O)c1nnc(C)n1-2` (stereo partly shown) [CRBN PROTAC (dBET6), dBET6], the “# tumor cell lines GI50, <1 μM” value (tumor cell lines [1]) is given as 58%, the “# tumor cell lines Low sensitivity/Resistant” value (tumor cell lines [1]) is given as 52% and the “# tumor cell lines Highly sensitive” value (tumor cell lines [1]) is given as 29%.

`CCCC(NC(=O)/C(C#N)=C/c1nccs1)c1ccc(OCC(=O)NCCOCCOCCOCCOCCOCCNC(=O)c2ccc(-c3ccc4c(c3)[C@H](Nc3ccc(Cl)cc3)C[C@H](C)N4C(C)=O)cc2)cc1` (stereo partly drawn) [Example A1, 4-((2S,4R)-1-acetyl-4-((4-chlorophenyl)amino)-2-methyl-1,2,3,4-tetrahydroquinolin-6-yl)-N-(1-(4-(1-((E)-2-cyano-3-(thiazol-2-yl)acrylamido)butyl)phenoxy)-2-oxo-6,9,12,15,18-pentaoxa-3-azaicosan-20-yl)benzamide] showed an IC50 (MV4;11 cells) of 48 nM.

With `CCCC(c1ccc(OCC(=O)NCCOCCOCCOCCOCCOCCNC(=O)c2ccc(-c3ccc4c(c3)[C@H](Nc3ccc(Cl)cc3)C[C@H](C)N4C(C)=O)cc2)cc1)N(C)C(=O)/C(C#N)=C/c1nccs1` (stereo partly drawn) [Example A2, 4-((2S,4R)-1-acetyl-4-((4-chlorophenyl)amino)-2-methyl-1,2,3,4-tetrahydroquinolin-6-yl)-N-(1-(4-(1-((E)-2-cyano-N-methyl-3-(thiazol-2-yl)acrylamido)butyl)phenoxy)-2-oxo-6,9,12,15,18-pentaoxa-3-azaicosan-20-yl)benzamide] the IC50 (MV4;11 cells) was 2 nM, the “# tumor cell lines GI50, <1 μM” value (tumor cell lines [2]) was 100% and the “# tumor cell lines Highly sensitive” value (tumor cell lines [2]; highly sensitive = degrader GI50 >3 fold more potent than inhibitor) was 66%. For the same compound, the “# tumor cell lines Low sensitivity/Resistant” value (tumor cell lines [2]; low sensitivity/resistant = degrader GI50 < inhibitor) was 15%.

For `CCCC(c1ccc(OCC(=O)NCCOCCOCCOCCOCCOCCNC(=O)c2ccc(-c3ccc4c(c3)[C@H](Nc3ccc(Cl)cc3)C[C@H](C)N4C(C)=O)cc2)cc1)N(C)C(=O)/C=C/c1nccs1` (stereo partly shown) [Example A6], the DC50 (HiBit-BRD4) was < 10000 nM.

`CCCC1c2ccc(OCCN3CCC(C(=O)Nc4ncc(SCc5ncc(C(C)(C)C)o5)s4)CC3)cc2CCN1C(=O)/C(C#N)=C/c1cccc(Br)n1` (stereo not shown) [Example A37] showed a bioavailability ([3]; 10 mg/kg oral vs 1 mg/kg intravenous) of 7.2%, an AUC(0-inf) ([3]; intravenous 1 mg/kg dose) of 841 ng·h/mL and an AUC(0-inf) ([3]; oral 10 mg/kg dose) of 605 ng·h/mL.

With `CCCC(c1ccc(CCCN2CCC(CNc3ncc(SCc4ncc(C(C)(C)C)o4)s3)CC2)cc1)N(C)C(=O)/C(C#N)=C/c1nc2ccccc2s1` (stereo not shown) [Example A39, 3-(benzo[d]thiazol-2-yl)-N-(1-(4-(3-(4-(((5-(((5-(tert-butyl)oxazol-2-yl)methyl)thio)thiazol-2-yl)amino)methyl)piperidin-1-yl)propyl)phenyl)butyl)-2-cyano-N-methylacrylamide] the “brain AUC(0-INF)” value [4] was 845 ng·h/mL, the Kp ([4]; female, mouse, brain and plasma, ratio of AUC(0-INF)) was 0.6 and the AUC(0-inf) ([4]; female, mouse, plasma) was 1340 ng·h/mL.

In the case of `C=CC(=O)N1CCN(c2nc(OC[C@@H]3CCCN3CCCCNC(=O)CCc3ccc(C(CCC)N(C)C(=O)/C(C#N)=C/c4nccs4)cc3)nc3c2CCN(c2cccc4cccc(Cl)c24)C3)C[C@@H]1CC#N` (stereo partly drawn) [Example A64, (E)-N-[1-[4-[3-[4-[(2S)-2-[[7-(8-chloro-1-naphthyl)-4-[(3S)-3-(cyanomethyl)-4-prop-2-enoyl-piperazin-1-yl]-6,8-dihydro-5H-pyrido[3,4-d]pyrimidin-2-yl]oxymethyl]pyrrolidin-1-yl]butylamino]-3-oxo-propyl]phenyl]butyl]-2-cyano-N-methyl-3-thiazol-2-yl-prop-2-enamide], the “residual KRas (G12C) abundance” value (mutant KRas (G12C)) is reported as “less than 50%”.

In the case of `Cc1ncsc1-c1ccc(CNC(=O)[C@@H]2C[C@@H](O)CN2C(=O)[C@@H](NC(=O)COCCOCCOCCNC(=O)C[C@@H]2N=C(c3ccc(Cl)cc3)c3c(sc(C)c3C)-n3c(C)nnc32)C(C)(C)C)cc1` [VHL PROTAC (MZ1), MZ1], the “# tumor cell lines GI50, <1 μM” value (tumor cell lines [1]) is given as 83%, the “# tumor cell lines Low sensitivity/Resistant” value (tumor cell lines [1]) is given as 26% and the “# tumor cell lines Highly sensitive” value (tumor cell lines [1]) is given as 47%.
